As usually defined, the IC50 is the concentration that inhibits the measured activity by half. Low readings indicate inhibition by little substance, high ones a need for much substance.

The subject of assay [1] is Tel22 G-quadruplex. The assay is described as follows: Thermal melting of Tel22 in sodium cacodylate buffer. The format is binding, human. The note with it: Tel22, r = 1.0, sodium cacodylate buffer, pH = 7.0, I = 0.1 mol dm^−3; error ± 0.5 °C. The procedure: (§1) Thermal melting curves for DNA, RNA and their complexes with studied compounds were determined as previously described by following the absorption change at 260 nm as a function of temperature. The absorbance of the ligands was subtracted from every curve and the absorbance scale was normalized. Tm values are the midpoints of the transition curves determined from the maximum of the first derivative and checked graphically by the tangent method. The ∆Tm values were calculated by subtracting Tm of the free nucleic acid from Tm of the complex. Every ∆Tm value here reported was the average of two measurements. The error in ∆Tm is ±0.5 °C. 5′-AGGG(TTAGGG)3–3′(Tel22) was obtained from IDT (Integrated DNA Technologies, Coralville, IA, USA). Tel22 was dissolved in 0.1 M either in sodium cacodylate or potassium phosphate buffer. The starting Tel22 oligonucleotide solution was first heated up to 95 °C for 10 min, then slowly cooled to 10 °C at the cooling rate of 1 °C/min to allow DNA oligonucleotide to adopt a G-quadruplex structure. The G-quadruplex structure was confirmed by thermal melting and CD spectra. The concentration of G quadruplex was expressed in terms of oligonucleotide structure. In fluorimetric titrations, aliquots of Tel 22 solution were added to the solution of ligands (c ~ 2 × 10^−7 M, in SI).

The test system of assay [2] is Tel22 G-quadruplex. The assay is described as follows: Thermal melting of Tel22 in potassium phosphate buffer. The format is binding, human. The settings on record: Tel22, r = 1.0, potassium phosphate buffer, pH = 7.0, I = 0.1 mol dm^−3; error ±0.5 °C. On the procedure: as §1
Another assay concerns the target poly(dGdC)2 (GC-DNA). The assay is described as follows: Fluorimetric titration with GC-DNA. Type of assay: binding. The note with it: for log Ka / Ka (order of magnitude): GC-DNA; for Ka (order of magnitude): sodium cacodylate buffer, pH 7.0, I = 0.05 mol dm^−3, Scatchard equation; for K (fit parameter of titration curve): poly(dGdC)2, pH=7.0, sodium cacodylate buffer, I = 0.05 mol dm-3. The procedure:
Materials. Polynucleotides were purchased as noted: poly A–poly U, calf thymus ctDNA, poly(dAdT)2 and poly(dGdC)2 (Sigma-Aldrich, St. Louis, MI, USA). Polynucleotides were dissolved in Na-cacodylate buffer, I = 0.05 mol dm^−3, pH = 7.0. The calf thymus ctDNA was additionally sonicated and filtered through a […]. Polynucleotide concentration was determined spectroscopically as the concentration of phosphates. Spectrophotometric titrations were performed at pH = 7.0 (I = 0.05 mol dm^−3, sodium cacodylate buffer) by adding aliquots of polynucleotide solution into the solution of the studied compound for fluorimetric experiments and CD experiments were done by adding aliquots of the compound stock solution into the solution of a polynucleotide. In fluorimetric experiments, an excitation wavelength of λexc = 425, 431, 423, 427, 406 and 407 nm, respectively, was used to avoid the inner filter effect caused due to increasing absorbance of the polynucleotide. Emission was collected in the range λem = 400–700 nm. Values for Ka obtained by processing titration data using the Scatchard equation [27], all have satisfactory correlation coefficients (≥0.98). Furthermore, linear changes were evident with increasing DNA or RNA concentration in most titrations. The exceptions to this were titrations of cyanine 3 with GC-DNA and titrations of dye 5 with ds-DNA and ds-RNA where sufficient data points in the non-linear part of the curve allowed estimation of binding affinity (Ka values were of the order 10^5 mol^−1 dm^−3; Figures S16, S22 and S23 in SI). Titration data were collected at a high excess of polynucleotide binding sites (r[1–6]/[nucleotide phosphate] < 0.1; see Figures S9–S26 in SI) where each molecule can bind to a separate binding site. Binding affinities of dye-DNA/RNA complexes were calculated by non-linear fitting using the Scatchard equation [27, 33]. The fluorescence changes of dye 5 in the titration with AT-DNA were too small to obtain an accurate binding constant (Figure S21 in SI).

The test system of another assay is HeLa cells. The assay is described as follows: MTT cytotoxicity assay, HeLa. The format is cell-based. The note with it: Homo sapiens, 72 h incubation, ± SD. On the procedure:
(§2) Human cervical carcinoma HeLa (GIBCO BRL, Invitrogen, Waltham, MA, USA), human melanoma MDA-MB-435S and human ovarian adenocarcinoma SK-OV-3 (ATCC-LGC Standards GmbH, Wesel, Germany) cell lines were purchased from indicated cell culture banks. Normal human skin fibroblasts were isolated from the upper arm of a donor at the Neurochemical Laboratory, Department of Chemistry and Biochemistry, School of Medicine, University of Zagreb. HeLa, MDA-MB-435S and fibroblasts were grown in Dulbecco’s Modified Eagle’s Medium (DMEM; Sigma-Aldrich, St. Louis, MI, USA) while the SK-OV-3 cell line was grown in McCoy’s 5A medium (Capricorn Scientific, Ebsdorfergrund, Germany). All media were supplemented with 10% fetal bovine serum (FBS; Sigma-Aldrich) and 50 I.U./mL penicillin and 50 μg/mL streptomycin. Cells were cultured in a humidified atmosphere of 5% CO2 at 37 °C and were sub-cultured every 3–4 days. HeLa, MDA-MB-435S, SK-OV-3 cells and fibroblasts were seeded in 96 well plates. Twenty-four hours later the cells were treated, in quadruplicate, with different concentrations of compounds (dissolved in DMSO, kept at 4 °C and protected from light). Following 72 h of incubation at 37 °C, the medium was aspired and modified 3-(4,5-dimethylthiazol-2-yl)-2,5-diphenyltetrazolium bromide (MTT) assay was used to determine the cytotoxic effect of the tested compounds. Three hours later, formazan crystals were dissolved in DMSO (0.17 mL/well), the plates were mechanically agitated for 20 min and the optical density at 600 nm was determined on a microtiter plate reader (Awareness Technology Inc., Palm City, FL, USA). The experiments were repeated three times.
Background: Formazan colour is commonly taken as a measure of viable cells.

The next assay deals with MDA-MB-435S cells. The assay is described as follows: MTT cytotoxicity assay, MDA-MB-435S. The settings on record: Homo sapiens, 72 h incubation, ± SD. Type of assay: cell-based. The procedure:
as §2

In the case of `CN1/C(=C/c2[se]c3ccccc3[n+]2C)Sc2ccccc21` [Compound 3, 3-methyl-2-((3-methylbenzo[d]thiazol-2(3H)-ylidene)methyl)benzo[d][1,3]selenazol-3-ium methosulphate], in the assay on Tel22 G-quadruplex [1], the “∆Tm” value worked out at 0.5 °C. Further, the “∆Tm” value with Tel22 G-quadruplex [2] was determined as 0.5 °C. On poly(dGdC)2 (GC-DNA), the “log Ka” value is reported as 5, the “Ka (order of magnitude)” value is given as ~10^5 mol^−1 dm^−3 and the “K (fit parameter of titration curve)” value is on record as 183746.7242 ±8918685.57223. The compound also had an IC50 in the assay on HeLa cells of 1.02 ± 0.672 µM. For the same compound, the IC50 in the assay on MDA-MB-435S cells amounted to 0.987 ± 0.177 µM.
For the compound `C[n+]1c(/C=C2\Sc3ccccc3N2CCCS)[se]c2ccccc21` [Compound 5, 2-((3-(3-mercaptopropyl)benzo[d]thiazol-2(3H)-ylidene)methyl)-3-methylbenzo[d][1,3]selenazol-3-ium methosulphate], the entries for the “∆Tm” value in the assay with Tel22 G-quadruplex [1] and in the assay with Tel22 G-quadruplex [2] were 2.1 °C and 5.1 °C, respectively. Further, the “log Ka” value at poly(dGdC)2 (GC-DNA) was found to be 5. For the same compound, the “Ka (order of magnitude)” value with poly(dGdC)2 (GC-DNA) is ~10^5 mol^−1 dm^−3. In addition, the “K (fit parameter of titration curve)” value in the assay with poly(dGdC)2 (GC-DNA) was 282880.22043 ±15074133.56759. For the same compound, the half-maximal inhibitory concentration (IC50) was found to be 27.9 ± 4.14 µM with HeLa cells and 37.1 ± 3.02 µM in the assay on MDA-MB-435S cells.

Values taken from article PMC9856044 (Biomolecules, 2023).
